{
  "source": "paper PMC7363588",
  "about": "“Mapping of the FGF14:Nav1.6 complex interface reveals FLPK as a functionally active peptide modulating excitability” (Physiological Reports, 2020)",
  "target": "T1, FGF14^V160A (Homo sapiens, UniProt Q92915, V155A)",
  "T1 construct": "aa 64–252); 6X His (N); made in house; host or cells: E. coli BL21 (DE3) pLys",
  "T1 sequence (Q92915 64-252 isoform Q92915-2 V160A)": "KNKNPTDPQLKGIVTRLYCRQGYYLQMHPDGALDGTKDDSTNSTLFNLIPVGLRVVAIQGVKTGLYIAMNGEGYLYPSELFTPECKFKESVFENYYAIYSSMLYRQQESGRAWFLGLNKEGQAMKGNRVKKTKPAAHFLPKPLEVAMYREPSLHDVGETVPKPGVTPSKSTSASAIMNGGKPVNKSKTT",
  "assay": "SPR binding to FGF14^V160A",
  "excerpt": "Plasmids used in this study derived from the following clones: human FGF14‐1b isoform (accession number: NM_175929.2) and human Nav1.6 (accession number: NM_014191.3). The CLuc‐FGF14, CD4‐Nav1.6‐NLuc, constructs and the pcDNA3.1 vector (Invitrogen, Carlsbad, CA) were engineered and characterized as previously described (Goetz et al., 2009; Shavkunov et al., 2012,2013,2015; Ali et al., 2016, 2018; Wadsworth et al., 2019). The plasmid pGL3 expressing full length Firefly (Photinus pyralis) luciferase was a gift from Dr. P. Sarkar (Department of Neurology, UTMB). For protein purification studies, cDNAs encoding FGF14‐1b (accession number NP_787125; aa 64–252) or the C‐terminal tail of Nav1.6 (accession number #NP_001171455; aa 1756–1939) were subcloned into suitable pET bacterial expression vectors (pET28a‐FGF14; pET30a‐Nav1.6) with a 6X His‐tag at the N‐terminal site; these plasmids were a gift of Dr. Moosa Mohammadi (NYU, Langone Medical Center). The mutation coding for FGF14^V160A was generated by site‐directed mutagenesis and PCR using FGF14‐1b as a template described previously (Ali et al., 2016). For electrophysiological studies FGF14‐GFP (human) and FGF14‐ΔNT‐GFP (human) were cloned into the GFP plasmid (pQBI‐fC2; Quantum Biotechnology Inc., Montreal, Canada) as previously described.\nUpon transformation with corresponding cDNA clones, the recombinant proteins FGF14, FGF14^V160A and Nav1.6 C‐terminal tail were expressed in E. coli BL21 (DE3) pLys (Invitrogen) after induction with 0.1 mM isopropyl thio‐β‐D‐galacto‐pyranoside (IPTG) for 24 hr at 16°C. […]\nSPR experiments were performed on a Biacore T100 (GE Healthcare Bio‐Sciences, Pittsburgh, PA), and the interaction of FGF14 and Nav1.6 channel toward FLPK, PLEV and EYYV (1–100 µM) were studied at 25°C. […] Maximal equilibrium responses were plotted against peptide concentrations and association rate constant (kon), dissociation rate constatnt (koff) were determined. […]",
  "key": {"[1]": {"details": "CM5, 25°C, 1–100 µM, RU 18,000, N.M. = not measurable"}},
  "note": "Entries after “also recorded” stand apart in the source; their conditions may differ. Peptide text beside a SMILES is read from it.",
  "data": [
    {"smiles": "CC(=O)N[C@@H](Cc1ccccc1)C(=O)N[C@@H](CC(C)C)C(=O)N1CCC[C@H]1C(=O)N[C@@H](CCCCN)C(N)=O", "note": "[FLPK] (Ac-FLPK-NH2)", "values": [
      {"measurement": "koff, dissociation rate constant", "setting": "[1]", "result": "N.M."},
      {"measurement": "kon, association rate constant", "setting": "[1]", "result": "N.M."},
      {"measurement": "binding to FGF14^V160A", "setting": "peptide 1–100 µM", "result": "no measurable binding; also recorded: no binding of FLPK was detected"}
    ]}
  ]
}
